Key:
hA3AR = target: T1, hA3AR (Homo sapiens, UniProt P0DMS8); assay: Wash-out assay, [3H]PSB-11 binding after washing; conditions: 1 μM compound, pre-incubated 2 h at 25 °C, washed 4 times
T1 construct: expressed in transfected cells; host or cells: CHO cells (CHOhA3AR), gift of Prof; K.N. Klotz, University of Würzburg; used as membrane fractions or live cells
T1 sequence (P0DMS8 1-318): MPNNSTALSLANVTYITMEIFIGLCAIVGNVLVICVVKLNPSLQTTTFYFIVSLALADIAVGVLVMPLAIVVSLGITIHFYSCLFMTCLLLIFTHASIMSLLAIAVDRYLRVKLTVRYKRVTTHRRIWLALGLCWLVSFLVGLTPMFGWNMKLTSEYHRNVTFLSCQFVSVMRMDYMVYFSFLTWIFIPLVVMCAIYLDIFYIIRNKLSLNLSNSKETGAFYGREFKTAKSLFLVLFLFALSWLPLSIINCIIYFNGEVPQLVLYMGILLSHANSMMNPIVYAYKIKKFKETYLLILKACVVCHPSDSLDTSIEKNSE
Description: 200 μL assay buffer (50 mM Tris–HCl, pH 8.0, 10 mM MgCl2, 1 mM EDTA and 0.01% CHAPS), 100 μL assay buffer containing the competing ligand (final concentration: 1 μM), and 100 μL of CHOhA3AR membrane fractions (100 μg protein) were combined and pre-incubated for 2 h at 25 °C while shaking. The ‘4× washed’ samples were centrifuged (5 min, 13,000 rpm, 4 °C), and the supernatant was removed. The resulting pellet was dissolved in 1 mL of assay buffer and incubated for 10 min at 25 °C while shaking. The ‘4× washed’ samples were then again centrifuged (2 min, 13,000 rpm, 4 °C), the supernatant was removed, and the resulting pellet was dissolved in 1 mL of assay buffer. The latter washing steps were repeated two times (four times washing total), and the final pellet was dissolved in 300 μL assay buffer. The radioligand (10 nM [^3H]PSB-11) in 100 μL of assay buffer was added to all samples, and the samples were incubated at 25 °C for 1 h. Nonspecific binding was determined in the presence of 100 μM NECA. Incubations were terminated by addition of 1 mL of ice-cold washing buffer (50 mM Tris–HCl, pH 8.0, 10 mM MgCl2, 1 mM EDTA) and rapid vacuum filtration through prewetted 96-well GF/B filter plates using a Brandel harvester. Filters were subsequently washed 5 times with ice-cold wash buffer. The plates were dried under vacuum, and a MicroscintTM-20 cocktail (PerkinElmer) was added subsequently. After 3 h, the filter-bound radioactivity was determined using a 2450 MicroBeta Microplate Counter (PerkinElmer).

human A1AR (hA1AR) = target: T2, human A1AR (hA1AR) (Homo sapiens, UniProt P30542); assay: Single-point radioligand displacement, [3H]DPCPX; assay type: binding; conditions: 1 μM probe; CHO cell membranes; co-incubated with radioligand 30 min at 25 °C; mean of two experiments
T2 construct: expressed in transfected cells; host or cells: CHO cells (CHOhA1AR), gift of Prof; S.J. Hill, University of Nottingham; membrane fractions
T2 sequence (P30542 1-326): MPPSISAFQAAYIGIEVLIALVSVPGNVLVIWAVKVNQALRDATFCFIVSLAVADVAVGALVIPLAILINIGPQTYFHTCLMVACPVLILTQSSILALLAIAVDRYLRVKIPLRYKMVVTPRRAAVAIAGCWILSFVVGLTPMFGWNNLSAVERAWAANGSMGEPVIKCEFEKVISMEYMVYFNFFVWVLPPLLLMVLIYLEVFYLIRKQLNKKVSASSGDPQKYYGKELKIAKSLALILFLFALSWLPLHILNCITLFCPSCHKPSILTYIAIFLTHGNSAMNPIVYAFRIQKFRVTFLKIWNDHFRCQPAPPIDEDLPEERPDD
Description: Membrane aliquots containing 15 μg (CHOhA3AR), 5 μg (CHOhA1AR), or 30 μg (HEK293hA2AAR and CHO-spap-A2BAR) of protein were resuspended in assay buffer (A3AR: 50 mM Tris–HCl, pH 8.0, 10 mM MgCl2, 1 mM EDTA, 0.01% CHAPS; A1AR and A2AAR: 50 mM Tris–HCl, pH 7.4; A2BAR: 50 mM Tris–HCl, pH 7.4, 0.1% CHAPS). […] Nonspecific binding was determined in the presence of 100 μM NECA (A3AR), 100 μM CPA (A1AR), 100 μM NECA (A2AAR), and 10 μM ZM241385 (A2BAR). Incubations were terminated by rapid vacuum filtration to separate the bound and free radioligand through prewetted 96-well GF/C filter plates using a PerkinElmer Filtermate harvester. Filters were subsequently washed 12 times with ice-cold wash buffer (A3AR: 50 mM Tris–HCl, pH 8.0, 10 mM MgCl2, 1 mM EDTA; A1AR and A2AAR: 50 mM Tris–HCl, pH 7.4; A2BAR: 50 mM Tris–HCl, pH 7.4, 0.1% BSA). The plates were dried at 55 °C, and MicroscintTM-20 cocktail (PerkinElmer) was added subsequently.
Single point displacement values shown are mean percentages of two individual experiments performed in duplicate. All pKi values shown are mean values ± SEM of three individual experiments performed in duplicate.

hA1AR = target: T3, hA1AR (Homo sapiens, UniProt P30542); assay: Full curve displacement assays on the hA1AR; assay type: binding; conditions: from full curve displacement assays (Table S1)
T3 construct: expressed in transfected cells; host or cells: CHO cells (CHOhA1AR), gift of Prof; S.J. Hill, University of Nottingham; membrane fractions
T3 sequence (P30542 1-326): T2 sequence (P30542 1-326)
Description: The affinity of the synthesized AfBPs was determined in radioligand binding experiments. First, single concentration displacement assays were carried out on all four human adenosine receptors, using a final probe concentration of 1 μM (Table 1). […] This quick screen indicated a good selectivity toward the hA3AR over the other human ARs, a trend that was also observed in the case of the parent compound.[34] Next, the ‘apparent’ affinities (depicted as pKi values) toward the hA3AR were determined using full curve displacement assays. To study the presumable covalent mode of action, the apparent affinity was determined with (pre-4 h) and without (pre-0 h) 4 h of pre-incubation of AfBP with hA3AR, prior to addition of radioligand. […] This difference in affinity was reflected in a shift in apparent pKi. […] To further investigate selectivity toward the hA3AR over the hA1AR, full curve displacement assays were carried out on the hA1AR.
[…]. Single point displacement values shown are mean percentages of two individual experiments performed in duplicate. All pKi values shown are mean values ± SEM of three individual experiments performed in duplicate. Statistical analysis was performed using a one-way ANOVA test with multiple comparisons (****p < 0.0001).

| SMILES | binding to hA3AR after wash-out ([3H]PSB-11 binding recovery) (hA3AR) | % specific [3H]DPCPX displacement, hA1AR (human A1AR (hA1AR)) | selectivity toward the hA3AR over the hA1AR (hA1AR) |
| --- | --- | --- | --- |
| C#CCN(CCCn1c(=O)n(CCC)c(=O)c2c1nc1cc(OC)ccn12)C(=O)c1ccc(S(=O)(=O)F)cc1 [compound 5, 4-((3-(8-Methoxy-2,4-dioxo-3-propyl-3,4-dihydropyrido[2,1-f]purin-1(2H)-yl)propyl)(prop-2-yn-1-yl)carbamoyl)benzenesulfonyl fluoride] | persistent binding | 2% | > 100 fold |
| C#CCOc1ccn2c(c1)nc1c2c(=O)n(CCC)c(=O)n1CCCNC(=O)c1ccc(S(=O)(=O)F)cc1 [compound 9, 4-((3-(2,4-Dioxo-8-(prop-2-yn-1-yloxy)-3-propyl-3,4-dihydropyrido[2,1-f]purin-1(2H)-yl)propyl)carbamoyl)benzenesulfonyl fluoride] | persistent binding | 21% | > 17 fold |

Reference: publication PMC10461224, “Development of an Affinity-Based Probe to Profile Endogenous Human Adenosine A3 Receptor Expression” (Journal of Medicinal Chemistry, 2023)
